Assay results taken from patent US9139502B2, “Use of an urushiol compound in preparation of pharmaceutical compositions for inhibiting Smad3 phosphorylation” (Southern Hospital, Southern Medical University, priority 2013, dated 2015).

Tests used:
Smad3 phosphorylation = Smad3 phosphorylation in kidney tissue of UUO rats (immunohistochemistry, Western blot); format: in vivo, rat; details: GQ-5 40 mg/kg daily i.p. right after or 7 days after UUO, sacrificed day 14
Experimental: Male Sprague-Dawley rats with body weight 200 to 250 g were randomized into 4 groups (n=6 in each group): (1) sham operated rats; (2) UUO rats; (3) UUO+GQ-5 d1 rats; (4) UUO+GQ-5 d7 rats.
(§1) GQ-5 was dissolved in 5% propylene glycol.
(3) UUO+GQ-5 d1 rats: daily intraperitoneal injection of GQ-5 (40 mg/kg body weight) right after UUO;
(4) UUO+GQ-5 d7 rats: daily intraperitoneal injection of GQ-5 (40 mg/kg body weight) 7 days after UUO.
(§2) UUO was performed using an established protocol as described. GQ-5 was dissolved in 5% propylene glycol. Rats were administrated with GQ-5 as described before. All the rats were sacrificed 14 days after UUO. Immunohistochemical staining and Western blot analyses were performed to examine the Smad3 and Smad2 phosphorylation in kidney tissue.

Smad7 = test: Western blot of Smad7 expression in UUO kidneys; format: in vivo, rat; details: UUO rats, GQ-5 40 mg/kg daily i.p. right after UUO, sacrificed day 14
Experimental: (§3) Male Sprague-Dawley rats with body weight 200 to 250 g were randomized into 3 groups (n=6 in each group): (1) sham operated rats; (2) UUO rats; (3) UUO+GQ-5 rats.
as §1
(§4) (3) UUO+GQ-5 rats: daily intraperitoneal injection of GQ-5 (40 mg/kg body weight) right after UUO;
as §2, with “UUO.” for “UUO. Immunohistochemical staining and”, “Smad4, Smad7 expression” for “Smad3”, “p38, PI3K, ERK phosphorylation.” for “Smad2 phosphorylation in kidney tissue.”

p38 = test: Western blot of p38 phosphorylation in UUO kidneys; format: in vivo, rat; details: UUO rats, GQ-5 40 mg/kg daily i.p. right after UUO, sacrificed day 14
Experimental: as §3, §1, §4
as §2, with “UUO.” for “UUO. Immunohistochemical staining and”, “Smad4, Smad7 expression” for “Smad3”, “p38, PI3K, ERK phosphorylation.” for “Smad2 phosphorylation in kidney tissue.”

ERK = test: Western blot of ERK phosphorylation in UUO kidneys; format: in vivo, rat; details: UUO rats, GQ-5 40 mg/kg daily i.p. right after UUO, sacrificed day 14
Experimental: as §3, §1, §4
as §2, with “UUO.” for “UUO. Immunohistochemical staining and”, “Smad4, Smad7 expression” for “Smad3”, “p38, PI3K, ERK phosphorylation.” for “Smad2 phosphorylation in kidney tissue.”

Smad3 = test: Immunofluorescence staining of TGF-β1-induced Smad3 nuclear translocation; format: cell-based, rat; details: NRK52E cells, GQ-5 2.5 μM pre-treated 1 h, TGF-β1 10 ng/ml 2 h
Experimental: (§5) NRK52E cells were cultured in DMEM-Ham's medium supplemented with 10% fetal bovine serum. The cells reached at approximately 50% confluence were used for in vitro experiments. Cells were serum-starved for 12 h, and randomized into 3 groups: (1) Controls; (2) TGF-β1 only; (3) TGF-β1+GQ-5.
(§6) (2) TGF-β1 only: pre-treated with DMSO for 1 h, followed with TGF-β1 (10 ng/ml) for 2 h
(§7) (3) TGF-β1+GQ-5: pre-treated with GQ-5 (2.5 μM) for 1 h, followed with TGF-β1 (10 ng/ml) for 2 h
(§8) GQ-5 was dissolved in DMSO. Cells were treated as described Immunofluorescence staining was performed to examine the nuclear translocation of Smad2, Smad3, and Smad4.

Smad2 = test: Immunofluorescence staining of Smad2 nuclear translocation; format: cell-based, rat; details: NRK52E cells, GQ-5 2.5 μM pre-treated 1 h, TGF-β1 10 ng/ml 2 h
Experimental: as §5, §6, §7, §8

Smad4 = test: Immunofluorescence staining of Smad4 nuclear translocation; format: cell-based, rat; details: NRK52E cells, GQ-5 2.5 μM pre-treated 1 h, TGF-β1 10 ng/ml 2 h
Experimental: as §5, §6, §7, §8

[1] = system: Smad3-dependent collagen I promoter; test: Luciferase reporter assay of Smad3-dependent collagen I promoter activity; format: cell-based, rat; details: NRK52E cells transfected with p(GAGA)12-luc, GQ-5 0.1, 0.5, 2.5 μM pre-treated 1 h, TGF-β1 10 ng/ml 24 h
α-SMA = test: Real-time PCR of TGF-β1-induced α-SMA mRNA in vitro; format: cell-based, rat; details: NRK 52E and NRK 49F cells, GQ-5 0.1-2.5 μM pre-treated 1 h, TGF-β1 10 ng/ml 36 h
Experimental: as §5, with “NRK52E and NRK49F” for “NRK52E”, “6” for “3”, “(2) GQ-5 only; (3)” for “(2)”, “(4) TGF-β1+GQ-5 0.1 μM; (5) TGF-β1+GQ-5 0.5 μM; (6) TGF-β1+GQ-5 2.5 μM” for “(3) TGF-β1+GQ-5.”
(2) GQ-5 only: pre-treated with GQ-5 (2.5 μM) for 1 h, followed with DMEM for 36 h
(3) TGF-β1 only: pre-treated with DMSO for 1 h, followed with TGF-β1 (10 ng/ml) for 36 h
(4) TGF-β1+GQ-5 0.1 μM: pre-treated with GQ-5 (0.1 μM) for 1 h, followed with TGF-β1 (10 ng/ml) for 36 h
(5) TGF-β1+GQ-5 0.5 μM: pre-treated with GQ-5 (0.5 μM) for 1 h, followed with TGF-β1 (10 ng/ml) for 36 h
(6) TGF-β1+GQ-5 2.5 μM: pre-treated with GQ-5 (2.5 μM) for 1 h, followed with TGF-β1 (10 ng/ml) for 36 h
GQ-5 was dissolved in DMSO. Cells were treated as described. Cells were collected for mRNA extraction. Real-rime PCR was performed to examine the mRNA expression of α-SMA, collagen I and fibronectin.

[2] = target: T1, interaction of Smad2 with TβRI (Rattus norvegicus, UniProt O70436); test: Immunoprecipitation of Smad2 with TβRI in UUO kidneys; format: in vivo; details: GQ-5 40 mg/kg daily i.p. right after UUO, sacrificed day 14
T1 sequence (O70436 whole entry): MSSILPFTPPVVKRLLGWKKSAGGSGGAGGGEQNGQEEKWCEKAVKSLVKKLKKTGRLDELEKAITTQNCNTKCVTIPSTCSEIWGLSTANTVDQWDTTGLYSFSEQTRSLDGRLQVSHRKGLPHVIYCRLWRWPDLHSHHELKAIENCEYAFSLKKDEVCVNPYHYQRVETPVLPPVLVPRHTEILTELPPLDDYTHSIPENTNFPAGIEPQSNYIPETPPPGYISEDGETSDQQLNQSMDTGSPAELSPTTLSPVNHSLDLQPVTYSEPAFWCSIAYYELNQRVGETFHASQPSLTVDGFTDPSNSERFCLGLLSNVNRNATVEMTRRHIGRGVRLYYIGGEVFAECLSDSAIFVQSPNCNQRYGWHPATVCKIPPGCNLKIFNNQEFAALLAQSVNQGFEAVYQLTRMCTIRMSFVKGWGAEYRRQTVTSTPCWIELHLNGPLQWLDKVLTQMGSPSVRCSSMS
Experimental: as §3, §1, §4
UUO was performed using an established protocol as described. GQ-5 was dissolved in 5% propylene glycol. Rats were administrated with GQ-5 as described before. All the rats were sacrificed 14 days after UUO. Immunoprecipitation analyses were performed to examine the interaction among TβRI, TβRII, Smad3 and Smad2.

[3] = target: T1, interaction of Smad2 with TβRI; test: Immunoprecipitation of Smad2 with TβRI in vitro; format: cell-based; design: endogenous in cells; host or cells: NRK52E; details: NRK52E cells, GQ-5 2.5 nM pre-treated 1 h, TGF-β1 10 ng/ml 1 h
Experimental: as §5, with “4” for “3”, “(2) GQ-5 only; (3)” for “(2)”, “(4) TGF-β1+GQ-5” for “(3) TGF-β1+GQ-5.”
(2) GQ-5 only: pre-treated with GQ-5 (2.5 nM) for 1 h, followed with DMEM for 1 h
(3) TGF-β1 only: pre-treated with DMSO for 1 h, followed with TGF-β1 (10 ng/ml) for 1 h
(4) TGF-β1+GQ-5: pre-treated with GQ-5 (2.5 nM) for 1 h, followed with TGF-β1 (10 ng/ml) for 1 h
GQ-5 was dissolved in DMSO. Cells were treated as described. Cell lysates were collected for immunoprecipitation to examine the interaction among TGFβ type I receptor (TβRI), TβRII, Smad3 and Smad2.

CCCCCC/C=C\CCCCCCCc1cccc(O)c1O [GQ-5, 3-[(Z)-pentadec-8-enyl]catechol]
Smad3 phosphorylation in renal tissue (Smad3 phosphorylation): significantly inhibited | expression of Smad7 (Smad7): did not affect | phosphorylation of p38 (p38): did not affect | phosphorylation of ERK (ERK): did not affect | TGF-β1-induced Smad3 nuclear translocation (Smad3): significantly reduced | nuclear translocation of Smad2 (Smad2): also reduced | nuclear translocation of Smad4 (Smad4): also reduced | TGF-β1-induced Smad3-dependent collagen I promoter activity [1]: significantly inhibited TGF-β1-induced Smad3-dependent collagen I promoter activity in a dose-dependent manner | TGF-β1-induced mRNA expression of α-SMA (α-SMA): significantly inhibited | interaction of Smad2 with TβRI [2]: did not affect | interaction of Smad2 with TβRI [3]: did not affect
